Values belong to the compound of their own block, whether it stands above or below them.
Assays:
[1] = Solubility of Melperone HCl in media; type: physicochemical; conditions: for solubility: phosphate buffer, aqueous buffer
[2] = test system: psychosis in patients with PD; conditions: cited from earlier work
[3] = clinical; cited from earlier work
[4] = cited from earlier work
[5] = test system: psychosis associated with PD; conditions: initial open-label studies; cited from earlier work

Solubility in words ([1]; aqueous buffers at acidic to neutral pH conditions): freely soluble
Solubility in words ([1]; higher pH values (above pH=7.5)): poorly soluble
SMILES: CC1CCN(CCCC(=O)c2ccc(F)cc2)CC1 [melperone]
time over which efficacy was maintained ([2]; mean daily dose of 37.5 mg): 2 years
efficacy in the treatment of psychosis ([2]; patients with PD): has shown efficacy
onset of efficacy ([2]; patients with PD): within a week
incidence of extrapyramidal side effect (EPS) or tardive dyskinesia [3]: low incidence
mean Tmax ([4]; oral tablet administration): 1.5 to 3.0 h
absolute oral bioavailability ([4]; oral): 50-70%

solubility ([1]; pH 7.0 (phosphate)): > 100 mg/mL
solubility ([1]; pH 7.8 (phosphate)): 25.6 mg/mL
SMILES: CC1CCN(CCCC(=O)c2ccc(F)cc2)CC1.Cl [Melperone HCl, 1-(4-fluorophenyl)-4-(4-methyl-1-piperidinyl)-1-butanone hydrochloride]

SMILES: OCCOCCN1CCN(C2=Nc3ccccc3Sc3ccccc32)CC1 [quetiapine]
efficacy in psychosis associated with PD [5]: has shown efficacy
patients with worsening of motor symptoms of PD [5]: up to 30%

Reference: patent publication US20100151021A1 (priority 2008, published 2010)
